Several values for one entry are separate records, joined by “and”; a condition that tells them apart may be missing. Equal values may be shown once.
Legend:
[1] = test system: Phakopsora pachyrhizi; assay: Phakopsora pachyrhizi (Soybean rust) soybean leaf disk preventive fungicidal activity; type: in vivo; conditions: single compound, approx. 12 dpi; for inhibition at 3 g/ha / inhibition at 1 g/ha: Phakopsora pachyrhizi, foliar, read-out: Observed Activity (%)
Protocol: Phakopsora pachyrhizi (Soybean Rust): Soybean leaf disks are placed on agar in multiwell plates (24-well format) and sprayed with test solutions. After drying, the leaf disks are inoculated with a spore suspension of the fungus. After appropriate incubation the activity of a compound is assessed approx. 12 dpi (days after inoculation) as preventive fungicidal activity.

[2] = test system: Botrytis cinerea; assay: Botrytis cinerea (Gray mould) liquid culture growth inhibition, microtiter plate; type: cell-based; conditions: single compound, 72 hrs, 24 C, read-out: Observed Activity (%)
Protocol: (§1) Botrytis cinerea (Gray Mould): Conidia of the fungus from cryogenic storage were directly mixed into nutrient broth (PDB potato dextrose broth). A DMSO solution of the test compounds was placed into a microtiter plate (96-well format) and the nutrient broth containing the fungal spores was added to it. The test plates were incubated at 24 C and the inhibition of growth was determined photometrically after 72 hrs.

[3] = test system: Septoria tritici; assay: Septoria tritici (Leaf blotch) liquid culture growth inhibition, microtiter plate; type: cell-based; conditions: single compound, 72 hrs, 24 C
Protocol: as §1, with “Septoria tritici (Leaf Blotch):” for “Botrytis cinerea (Gray Mould):”

[4] = test system: Mycosphaerella arachidis syn. Cercospora arachidicola; assay: Mycosphaerella arachidis syn. Cercospora arachidicola (Brown leaf spot of peanut) liquid culture growth inhibition; type: cell-based; conditions: single compound, approximately 5-6 days, 24 C, read-out: Observed Activity (%)
Protocol: as §1, with “Mycosphaerella arachidis syn. Cercospora arachidicola (Brown Leaf Spot of Peanut):” for “Botrytis cinerea (Gray Mould):”, “approximately 5-6 days at 620nm” for “72 hrs.”

[5] = Zymoseptoria tritici, read-out: Observed Activity (%)

Molecule	inhibition at 3 g/ha ([1]; 3 g a.i./ha) [%]	Observed Activity (%) ([1]; 1 g a.i./ha)	inhibition at 20 ppm [2] [%]	inhibition at 10 ppm [3, 5] [%]	inhibition at 20 ppm [3, 5] [%]	inhibition at 1 g/ha ([1]; 1 g a.i./ha) [%]	Observed Activity (%) ([1]; 3 g a.i./ha)	also measured
Fc1cccc(F)c1C1(Nc2ncc(-c3nnc(C(F)F)o3)cn2)CC1 [Compound A-1.3, 5-[5-(difluoromethyl)-1,3,4-oxadiazol-2-yl]-N-[1-(2,6-difluorophenyl)cyclopropyl]pyrimidin-2-amine]	47	5% and 1%	20	20	20			inhibition at 10 ppm [2]: 20%; inhibition at 10 ppm ([4]; 10 ppm): 20%; inhibition at 20 ppm ([4]; 20 ppm): 20%
Fc1ccccc1C1(Nc2ncc(-c3nnc(C(F)F)o3)cn2)CC1 [Compound A-1.4, 5-[5-(difluoromethyl)-1,3,4-oxadiazol-2-yl]-N-[1-(2-fluorophenyl)cyclopropyl]pyrimidin-2-amine]	43	16%	20	20	20	12	45%	inhibition at 10 ppm [2]: 20%
1-(2,6-difluoro-4-isopropyl-phenyl)pyrazole; methyl N-[(2,5-dimethylphenyl)methyl]carbamate [reference compound]		3%					65%	Observed Activity (%) ([3]; 0.0008 ppm): 20%; Observed Activity (%) ([3]; 0.00246 ppm): 70%
COC(=O)NCc1cc(-c2ccn(-c3c(F)cc(C4CC4)cc3F)n2)ccc1C [methyl N-[[5-[1-(4-cyclopropyl-2,6-difluoro-phenyl)pyrazol-3-yl]-2-methyl-phenyl]methyl]carbamate, reference compound]	54					12		inhibition at 0.0074 ppm ([2]; 0.0074 ppm): 0%; inhibition at 0.022 ppm ([2]; 0.022 ppm): 50%; inhibition at 0.0008 ppm ([3]; Zymoseptoria tritici, 0.0008 ppm, read-out: Observed Activity (%)): 20%; inhibition at 0.00246 ppm ([4]; 0.00246 ppm): 20%
CCOC(=O)c1cnn(Cc2ccc(OCC3(C(F)(F)F)OCCO3)cc2)c1 [ethyl 1-[[4-[[2-(trifluoromethyl)-1,3-dioxolan-2-yl]methoxy]phenyl]methyl]pyrazole-4-carboxylate]			0			35		inhibition at 6.66 ppm [2]: 0%
CCOC(=O)c1cnn(Cc2ccc(O/C=C(\OCC)C(F)(F)F)cc2)c1 [ethyl 1-[[4-[(Z)-2-ethoxy-3,3,3-trifluoro-prop-1-enoxy]phenyl]methyl]pyrazole-4-carboxylate, reference compound]	56		20		20	38		inhibition at 6.66 ppm [2]: 20%
Fc1cccc(F)c1C1(Oc2ncc(-c3nnc(C(F)F)o3)cn2)CC1 [Compound A-1.2, 2-(difluoromethyl)-5-[2-[1-(2,6-difluorophenyl)cyclopropoxy]pyrimidin-5-yl]-1,3,4-oxadiazole]		0% and 9%		0	0		4% and 0%	Observed Activity (%) ([1]; 6 g a.i./ha): 5%

Source: US20260020566A1, “FUNGICIDAL COMPOSITIONS” (SYNGENTA CROP PROTECTION AG, priority 2022, published 2026)
